Each block holds one compound with its values, some of them ahead of it. Active and inactive are the calls of the source. The calls are words filed in the database; no cut-off is given here.
Experiments:
MCF7 [1] = test: Antiproliferative activity against human MCF7 cells assessed as inhibition of cell growth; format: functional, cell-based
[2] = target: MAP kinase p38 (Homo sapiens) (UniProt O15264+Q15759+Q16539+P53778); test: Inhibition of P38 phosphorylation in human MDA-MB-468 cells upto 20 uM; format: cell-based
MDA-MB-468 [3] = test: Induction of DNA damage in human MDA-MB-468 cells assessed as increase in accumulation of gammaH2AX level; format: functional, cell-based; conditions: dose <= 20.0 µM
MDA-MB-468 [4] = test: Induction of cell cycle arrest in human MDA-MB-468 cells assessed as accumulation of cells at G2 phase at 5 uM measured for 48 hrs by PI staining based flow cytometry analysis (reference value: 16.4%); format: functional
MDA-MB-468 [5] = test: Effect on HSP90 level in human MDA-MB-468 cells upto 20 uM; format: functional, cell-based
MCF-10A [6] = test: Effect on P53 expression in human MCF-10A cells at 20 uM measured for 48 hrs by immunoblot analysis; format: functional, cell-based
MDA-MB-468 [7] = test: Antiproliferative activity against human MDA-MB-468 cells assessed as inhibition of cell growth at 10 uM incubated for 72 hrs; format: functional
MDA-MB-468 [8] = test: Antiproliferative activity against human MDA-MB-468 cells assessed as inhibition of cell growth; format: functional, cell-based
BT-474 [9] = test: Effect on gammaH2AX expression in human BT-474 cells at 20 uM measured for 48 hrs by immunoblot analysis; format: functional, cell-based
MCF-10A [10] = test: Effect on HSP70 expression in human MCF-10A cells at 20 uM measured for 48 hrs by immunoblot analysis; format: functional, cell-based
MDA-MB-468 [11] = test: Induction of cell cycle arrest in human MDA-MB-468 cells assessed as accumulation of cells at S phase at 5 uM measured for 48 hrs by PI staining based flow cytometry analysis (reference value: 4.39%); format: functional
SK-BR-3 [12] = test: Effect on gamma H2AX expression in human SK-BR-3 cells at 20 uM measured for 48 hrs by immunoblot analysis; format: functional, cell-based
MDA-MB-468 [13] = test: Induction of cell cycle arrest in human MDA-MB-468 cells assessed as accumulation of cells at G1 phase at 20 uM measured for 48 hrs by PI staining based flow cytometry analysis (reference value: 80.8%); format: functional
MDA-MB-468 [14] = test: Downregulation of HSP70 expression in human MDA-MB-468 cells upto 20 uM; format: functional, cell-based
JIMT-1 [15] = test: Antiproliferative activity against human JIMT-1 cells assessed as inhibition of cell growth; format: functional, cell-based
BT-474 [16] = test: Effect on P38 expression in human BT-474 cells at 20 uM measured for 48 hrs by immunoblot analysis; format: functional, cell-based
MDA-MB-468 [17] = test: Induction of cell cycle arrest in human MDA-MB-468 cells assessed as accumulation of cells at S phase at 20 uM measured for 48 hrs by PI staining based flow cytometry analysis (reference value: 4.39%); format: functional
JIMT-1 [18] = test: Effect on P38 expression in human JIMT- 1 cells at 20 uM measured for 48 hrs by immunoblot analysis; format: functional, cell-based
MCF7 [19] = test: Effect on gammaH2AX expression in human MCF7 cells at 20 uM measured for 48 hrs by immunoblot analysis; format: functional, cell-based
SK-BR-3 [20] = test: Effect on P38 expression in human SK-BR-3 cells at 20 uM measured for 48 hrs by immunoblot analysis; format: functional, cell-based
SK-BR-3 [21] = test: Effect on HSP70 expression in human SK-BR-3 cells at 20 uM measured for 48 hrs by immunoblot analysis; format: functional, cell-based
MCF-10A [22] = test: Effect on P38 expression in human MCF-10A cells at 20 uM measured for 48 hrs by immunoblot analysis; format: functional, cell-based
[23] = Antiproliferative activity against human MCF-10A cells assessed as inhibition of cell growth; format: toxicity, cell-based
BT-474 [24] = test: Effect on HSP70 expression in human BT-474 cells at 20 uM measured for 48 hrs by immunoblot analysis; format: functional, cell-based
MDA-MB-468 [25] = test: Potency index, ratio of cisplatin IC50 to test compound IC50 for antiproliferative activity against human MDA-MB-468 cells assessed as inhibition of cell growth; format: functional
SK-BR-3 [26] = test: Effect on P53 expression in human SK-BR-3 cells at 20 uM measured for 48 hrs by immunoblot analysis; format: functional, cell-based
JIMT-1 [27] = test: Effect on P53 expression in human JIMT- 1 cells at 20 uM measured for 48 hrs by immunoblot analysis; format: functional, cell-based
BT-474 [28] = test: Effect on P53 expression in human BT-474 cells at 20 uM measured for 48 hrs by immunoblot analysis; format: functional, cell-based
BT-474 [29] = test: Antiproliferative activity against human BT-474 cells assessed as inhibition of cell growth; format: functional, cell-based
MDA-MB-468 [30] = test: Effect on HSF-1 level in human MDA-MB-468 cells upto 20 uM; format: functional, cell-based
MDA-MB-468 [31] = test: Induction of cell cycle arrest in human MDA-MB-468 cells assessed as accumulation of cells at G1 phase at 5 uM measured for 48 hrs by PI staining based flow cytometry analysis (reference value: 80.8%); format: functional
MCF7 [32] = test: Effect on P53 expression in human MCF7 cells at 20 uM measured for 48 hrs by immunoblot analysis; format: functional, cell-based
MCF7 [33] = test: Effect on HSP70 expression in human MCF7 cells at 20 uM measured for 48 hrs by immunoblot analysis; format: functional, cell-based
JIMT-1 [34] = test: Effect on HSP70 expression in human JIMT- 1 cells at 20 uM measured for 48 hrs by immunoblot analysis; format: functional, cell-based
MCF7 [35] = test: Effect on P38 expression in human MCF7 cells at 20 uM measured for 48 hrs by immunoblot analysis; format: functional, cell-based
[36] = Selectivity index, ratio of IC50 for antiproliferative activity against human BT-474 cells assessed as inhibition of cell growth to IC50 for antiproliferative activity against human MDA-MB-468 cells assessed as inhibition of cell growth; format: functional
MDA-MB-468 [37] = test: Induction of cell cycle arrest in human MDA-MB-468 cells assessed as accumulation of cells at G2 phase at 20 uM measured for 48 hrs by PI staining based flow cytometry analysis (reference value: 16.4%); format: functional
JIMT-1 [38] = test: Effect on gammaH2AX expression in human JIMT- 1 cells at 20 uM measured for 48 hrs by immunoblot analysis; format: functional, cell-based
MDA-MB-468 [39] = test: Induction of cell cycle arrest in human MDA-MB-468 cells assessed as accumulation of cells at S phase at 10 uM measured for 48 hrs by PI staining based flow cytometry analysis (reference value: 4.39%); format: functional
MDA-MB-468 [40] = test: Induction of cell cycle arrest in human MDA-MB-468 cells assessed as accumulation of cells at G1 phase at 10 uM measured for 48 hrs by PI staining based flow cytometry analysis (reference value: 80.8%); format: functional
MDA-MB-468 [41] = test: Induction of DNA damage in human MDA-MB-468 cells assessed as increase in p53 expression; format: functional, cell-based; conditions: dose <= 20.0 µM
MCF-10A [42] = test: Effect on gammaH2AX expression in human MCF-10A cells at 20 uM measured for 48 hrs by immunoblot analysis; format: functional, cell-based
MDA-MB-468 [43] = test: Induction of cell cycle arrest in human MDA-MB-468 cells assessed as accumulation of cells at G2 phase at 10 uM measured for 48 hrs by PI staining based flow cytometry analysis (reference value: 16.4%); format: functional
SK-BR-3 [44] = test: Antiproliferative activity against human SK-BR-3 cells assessed as inhibition of cell growth; format: functional, cell-based

IC50 (MCF7 [1]): 41.6 µM
inhibition [2]: Active
IC50 (MDA-MB-468 [8]): 6.5 µM
IC50 (BT-474 [29]): 28.7 µM
IC50 (SK-BR-3 [44]): > 60 µM
Compound: O=C1Nc2ccccc2N/C1=C\C(=O)c1cccc(OCc2ccccc2)c1
Activity (MDA-MB-468 [3]): Dose-Dependent Effect
Activity (MDA-MB-468 [4]): 17.4%
Activity (MDA-MB-468 [5]): inactive
Activity (MCF-10A [6]): inactive
inhibition at 10 µM (MDA-MB-468 [7]): 50%
Activity (BT-474 [9]): inactive
Activity (MCF-10A [10]): inactive
Activity (MDA-MB-468 [11]): 9.32%
Activity (SK-BR-3 [12]): inactive
Activity (MDA-MB-468 [13]): 58.7%
Activity (MDA-MB-468 [14]): Active
IC50 (JIMT-1 [15]): 44.9 µM
Activity (BT-474 [16]): inactive
Activity (MDA-MB-468 [17]): 20%
Activity (JIMT-1 [18]): inactive
Activity (MCF7 [19]): inactive
Activity (SK-BR-3 [20]): inactive
Activity (SK-BR-3 [21]): inactive
Activity (MCF-10A [22]): inactive
IC50 [23]: 47.5 µM
Activity (BT-474 [24]): inactive
Ratio IC50 (MDA-MB-468 [25]): 2
Activity (SK-BR-3 [26]): inactive
Activity (JIMT-1 [27]): inactive
Activity (BT-474 [28]): inactive
Activity (MDA-MB-468 [30]): inactive
Activity (MDA-MB-468 [31]): 75%
Activity (MCF7 [32]): inactive
Activity (MCF7 [33]): inactive
Activity (JIMT-1 [34]): inactive
Activity (MCF7 [35]): inactive
Ratio IC50 [36]: 4.4
Activity (MDA-MB-468 [37]): 22.8%
Activity (JIMT-1 [38]): inactive
Activity (MDA-MB-468 [39]): 13.3%
Activity (MDA-MB-468 [40]): 69.1%
Activity (MDA-MB-468 [41]): Dose-Dependent Effect
Activity (MCF-10A [42]): inactive
Activity (MDA-MB-468 [43]): 19.1%

IC50 (MCF7 [1]): > 10 µM
IC50 (MDA-MB-468 [8]): 7.73 µM
IC50 (BT-474 [29]): > 10 µM
IC50 (SK-BR-3 [44]): > 10 µM
Compound: O=C1Nc2ccccc2N/C1=C\C(=O)c1ccccc1
inhibition at 10 µM (MDA-MB-468 [7]): 50%
IC50 (JIMT-1 [15]): > 10 µM
IC50 [23]: > 10 µM

Source: ChEMBL document CHEMBL5576060, “Discovery of acetophenone/piperazin-2-one hybrids as selective anti-TNBC cancer agents by causing DNA damage” (Bioorg Med Chem Lett, 2024)
